From US12187681B2 (Shanghai East Hospital, priority 2019, dated 2025)
Structures can show the parent of a compound that is named as a salt.

How the values were obtained:
[1] = target: T1, hERG (human ether-a-go-go related gene potassium channel, KCNH2) (Homo sapiens, UniProt Q12809); experiment: hERG channel whole-cell patch clamp (Ion Channel Activity Measurement); format: cell-based; details: human, room temperature; for inhibition at 1 μM: pH 7.4, 1 μM test article; for inhibition at 10 μM: pH 7.4, 10 μM test article
T1 construct: expressed in transfected cells; host or cells: HEK293
Description: HEK293 cell line expressing the human ERG (ether-a-go-go related gene) potassium channel (Potassium voltage-gated channel subfamily H member 2). cDNA strictly similar to GenBank accession number: NM_000238
(§1) Cells expressing channels were cultured in medium supplemented with 20% FBS in HAM'S F12 culture dish. Cells grew in a humidified incubator at 37° C. under 5% carbon dioxide. To passage cells, remove poor medium and rinse the cells once with PBS 1X. […] Place plate on a 37° C. warming incubator 5 min. As soon as cells are detached, add 5 ml of 37° C. complete medium. Draw cell suspension into a sterile pipet and homogenize cells gently to dissociate cells aggregates. Amplify or maintain the cells by seeding 2.5*105 cells in a 6 cm dish (final volume: 5 ml). To maintain electrophysiological performances, cell density must not exceed 80%. On the day before patch clamp experiment, 3*103 cells were seeded on coverslips in the 24-well plate and incubated at 37° C. in 5% carbon dioxide.
(§2) Glass pipette (BF150-86-10, Sutter Instruments) was made by puller (P97, Sutter Instruments). The glass pipette was manipulated using Micro-manipulator (Carm-C-S, MCI Instruments) under the microscope (AE31EF-INV, Motic). After touching the cell, a slight suction was applied to achieve high seal (GΩ). Fast capacitance (in pF) compensation was made after high seal was achieved; after achieving high seal, the membrane was broken, Cell capacitance (in pF) compensation was made from whole-cell capacitance compensation after the whole cell mode was achieved. No leak subtraction was made.
(§3) Cell was incubated with the test article for 5 minutes, or until the current reached a steady-state level. Multiple concentrations of test article were tested. The test articles were applied gradually from low to high concentration. The test and control solutions were flown into a recording chamber mounted on the stage of an inverted microscope via a gravity-fed solution delivery system. During the experiment, solutions were withdrawn from the recording chamber by vacuum aspiration. Each concentration was tested at multiple times. Each cell acted as its own control. All tests were performed at room temperature (23-25° C.).
hERG current was recorded under a holding potential at −80 mV and then depolarized to 30 mV for 2.5 seconds to activate the hERG channel. The peak tail currents were induced by a repolarizing pulse to −50 mV for 4 seconds. This voltage-clamp pulse protocol was performed continuously during the experiment. An interpulse interval of 10 seconds allowed recovery from inactivation. An interpulse of −50 mV test for 0.5 second before 30 mV depolarized step was included for leak current correction

[2] = target: T2, CaV1.2 (L-type voltage-dependent calcium channel; CACNA1C, CACNB2, CACNA2D1) (Homo sapiens, UniProt Q13936); experiment: CaV1.2 channel whole-cell patch clamp (Ion Channel Activity Measurement); format: cell-based; details: human, room temperature; for inhibition at 5 min, 1 μM: pH 7.4, 1 μM test article; for inhibition at 5 min, 10 μM: pH 7.4, 10 μM test article, read-out: CaV 1.2 10 μM (ion-channel inhibition)
T2 construct: expressed in transfected cells; host or cells: CHO
Description: • CHO cell line stably expressing human calcium channel, voltage-dependent, L type, • CACNA1C: cDNA strictly similar to GenBank accession number: NM_000719 • CACNB2: cDNA strictly similar to GenBank accession number: NM_000724 • CACNA2D1: cDNA strictly similar to GenBank accession number: NM_000722 Iks Channel Cell Line:
as §1
Bath solution: 140 mM TEA-C1, 2 mM MgCl2·6H2O, 10 mM CaCl2, 10 mM HEPES, 5 mM D-glucose, pH=7.4 with TEA-OH. Pipette solution: 120 mM CsCl, 1 mM MgCl2·6H2O, 10 mM HEPES, 10 mM EGTA, 0.3 mM Na2-GTP, 4 mM Mg-ATP, pH=7.2 with CsOH.
as §2, §3
Cav1.2 current was recorded under a holding potential at −80 mV and then depolarized to +10 mV for 0.3 seconds. This protocol was repeated at 20 s intervals to observe the effect of test articles on the peak of Cav1.2 current.

[3] = HEK293 cells expressing the human ERG potassium channel

T1 sequence (Q12809 whole entry): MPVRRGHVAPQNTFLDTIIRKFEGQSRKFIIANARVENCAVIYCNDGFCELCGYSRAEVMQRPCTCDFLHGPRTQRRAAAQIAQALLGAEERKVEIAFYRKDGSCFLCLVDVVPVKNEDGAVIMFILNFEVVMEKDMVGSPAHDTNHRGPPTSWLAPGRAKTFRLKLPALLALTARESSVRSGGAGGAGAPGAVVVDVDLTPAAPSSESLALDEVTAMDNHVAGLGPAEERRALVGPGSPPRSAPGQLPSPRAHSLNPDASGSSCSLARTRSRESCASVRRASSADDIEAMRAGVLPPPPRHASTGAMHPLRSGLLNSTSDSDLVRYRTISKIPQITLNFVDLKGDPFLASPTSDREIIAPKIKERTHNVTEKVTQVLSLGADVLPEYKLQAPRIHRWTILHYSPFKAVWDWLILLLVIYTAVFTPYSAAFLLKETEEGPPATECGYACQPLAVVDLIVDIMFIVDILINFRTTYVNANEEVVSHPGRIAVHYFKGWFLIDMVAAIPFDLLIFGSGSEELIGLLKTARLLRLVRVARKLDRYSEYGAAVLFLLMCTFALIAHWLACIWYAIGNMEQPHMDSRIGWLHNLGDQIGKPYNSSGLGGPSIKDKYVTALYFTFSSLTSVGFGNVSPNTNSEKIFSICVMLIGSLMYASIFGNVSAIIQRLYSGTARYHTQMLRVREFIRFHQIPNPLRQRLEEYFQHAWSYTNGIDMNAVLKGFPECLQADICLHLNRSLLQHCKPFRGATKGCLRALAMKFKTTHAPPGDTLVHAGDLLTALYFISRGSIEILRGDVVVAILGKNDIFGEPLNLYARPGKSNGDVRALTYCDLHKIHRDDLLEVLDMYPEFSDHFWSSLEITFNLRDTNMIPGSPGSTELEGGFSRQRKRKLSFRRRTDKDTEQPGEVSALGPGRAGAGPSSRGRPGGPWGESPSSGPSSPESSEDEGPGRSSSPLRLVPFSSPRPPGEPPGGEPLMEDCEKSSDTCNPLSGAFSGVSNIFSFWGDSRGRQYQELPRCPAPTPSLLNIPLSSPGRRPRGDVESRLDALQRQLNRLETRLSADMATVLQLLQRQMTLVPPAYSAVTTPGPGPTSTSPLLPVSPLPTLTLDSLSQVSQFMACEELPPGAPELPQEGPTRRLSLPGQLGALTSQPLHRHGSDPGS
T2 sequence (Q13936 1-2138 isoform Q13936-12): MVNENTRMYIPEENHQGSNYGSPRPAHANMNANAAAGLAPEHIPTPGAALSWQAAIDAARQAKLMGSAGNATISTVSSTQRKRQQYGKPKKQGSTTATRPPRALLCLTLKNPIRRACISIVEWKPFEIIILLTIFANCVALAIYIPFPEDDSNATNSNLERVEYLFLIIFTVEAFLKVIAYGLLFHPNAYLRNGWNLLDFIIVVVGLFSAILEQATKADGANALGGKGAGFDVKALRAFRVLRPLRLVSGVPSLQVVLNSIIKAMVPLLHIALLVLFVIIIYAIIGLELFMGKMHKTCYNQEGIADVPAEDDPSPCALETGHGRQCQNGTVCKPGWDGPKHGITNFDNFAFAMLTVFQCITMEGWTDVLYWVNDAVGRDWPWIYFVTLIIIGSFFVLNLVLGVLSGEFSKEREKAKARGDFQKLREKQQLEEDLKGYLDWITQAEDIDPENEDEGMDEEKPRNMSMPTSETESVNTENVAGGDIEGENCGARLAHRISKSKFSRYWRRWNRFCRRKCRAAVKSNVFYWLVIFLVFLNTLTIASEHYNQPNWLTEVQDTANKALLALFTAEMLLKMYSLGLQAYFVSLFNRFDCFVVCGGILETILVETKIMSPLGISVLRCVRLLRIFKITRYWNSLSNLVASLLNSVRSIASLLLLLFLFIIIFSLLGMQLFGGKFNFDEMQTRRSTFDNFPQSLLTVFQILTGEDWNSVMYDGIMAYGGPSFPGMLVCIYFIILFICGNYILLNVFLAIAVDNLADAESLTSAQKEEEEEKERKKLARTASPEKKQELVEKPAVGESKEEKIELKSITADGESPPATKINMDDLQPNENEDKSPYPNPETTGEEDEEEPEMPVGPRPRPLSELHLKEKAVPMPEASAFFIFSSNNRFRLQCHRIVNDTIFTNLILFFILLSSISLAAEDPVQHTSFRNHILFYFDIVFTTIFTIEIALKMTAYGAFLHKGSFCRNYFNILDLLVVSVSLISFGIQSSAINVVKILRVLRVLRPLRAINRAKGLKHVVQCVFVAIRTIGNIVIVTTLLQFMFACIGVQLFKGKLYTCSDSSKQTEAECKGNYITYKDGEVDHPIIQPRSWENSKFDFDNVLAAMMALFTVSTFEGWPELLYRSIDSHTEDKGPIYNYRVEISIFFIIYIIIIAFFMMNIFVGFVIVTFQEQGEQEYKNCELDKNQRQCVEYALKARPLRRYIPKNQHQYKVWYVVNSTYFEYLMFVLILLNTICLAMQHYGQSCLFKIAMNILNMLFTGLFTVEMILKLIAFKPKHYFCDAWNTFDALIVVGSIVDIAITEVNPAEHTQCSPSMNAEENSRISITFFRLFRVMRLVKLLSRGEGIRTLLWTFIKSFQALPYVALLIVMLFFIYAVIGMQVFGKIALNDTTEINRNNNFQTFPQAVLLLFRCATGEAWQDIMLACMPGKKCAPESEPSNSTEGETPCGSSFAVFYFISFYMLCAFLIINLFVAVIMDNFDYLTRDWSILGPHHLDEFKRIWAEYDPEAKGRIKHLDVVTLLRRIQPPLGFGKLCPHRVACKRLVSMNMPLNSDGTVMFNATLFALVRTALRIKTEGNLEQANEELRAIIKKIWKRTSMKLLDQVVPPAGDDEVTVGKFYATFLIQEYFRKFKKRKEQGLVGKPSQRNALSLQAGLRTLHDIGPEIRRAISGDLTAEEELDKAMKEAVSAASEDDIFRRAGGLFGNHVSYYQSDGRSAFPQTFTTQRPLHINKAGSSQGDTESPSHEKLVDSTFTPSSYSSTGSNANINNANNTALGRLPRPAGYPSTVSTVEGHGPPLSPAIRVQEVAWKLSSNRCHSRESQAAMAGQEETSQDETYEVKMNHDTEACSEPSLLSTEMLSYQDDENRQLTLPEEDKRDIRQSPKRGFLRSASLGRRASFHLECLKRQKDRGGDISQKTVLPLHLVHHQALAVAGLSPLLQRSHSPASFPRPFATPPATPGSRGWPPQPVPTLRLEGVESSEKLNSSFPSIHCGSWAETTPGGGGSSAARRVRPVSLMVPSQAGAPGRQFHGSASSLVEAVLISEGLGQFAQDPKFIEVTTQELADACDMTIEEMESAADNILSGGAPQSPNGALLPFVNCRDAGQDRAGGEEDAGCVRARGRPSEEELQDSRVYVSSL
T2 sequence (Q08289 1-605 isoform Q08289-2 partner): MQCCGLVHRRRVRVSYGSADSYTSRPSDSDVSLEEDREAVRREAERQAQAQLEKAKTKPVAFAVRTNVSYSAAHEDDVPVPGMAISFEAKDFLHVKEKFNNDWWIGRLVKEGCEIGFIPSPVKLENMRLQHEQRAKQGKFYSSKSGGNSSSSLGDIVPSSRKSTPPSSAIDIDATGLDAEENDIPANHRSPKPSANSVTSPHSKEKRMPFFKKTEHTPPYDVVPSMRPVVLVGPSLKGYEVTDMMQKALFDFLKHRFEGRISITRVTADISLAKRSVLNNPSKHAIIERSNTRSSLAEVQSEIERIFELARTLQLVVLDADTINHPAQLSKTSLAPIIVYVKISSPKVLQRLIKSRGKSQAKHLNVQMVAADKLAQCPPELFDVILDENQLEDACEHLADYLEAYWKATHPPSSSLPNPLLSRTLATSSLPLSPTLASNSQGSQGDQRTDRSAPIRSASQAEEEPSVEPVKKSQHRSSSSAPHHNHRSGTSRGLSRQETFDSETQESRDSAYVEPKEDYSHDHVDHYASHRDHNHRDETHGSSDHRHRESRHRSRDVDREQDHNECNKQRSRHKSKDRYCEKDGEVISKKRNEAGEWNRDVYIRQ
T2 sequence (P54289 25-1091 isoform P54289-2 partner limits assumed): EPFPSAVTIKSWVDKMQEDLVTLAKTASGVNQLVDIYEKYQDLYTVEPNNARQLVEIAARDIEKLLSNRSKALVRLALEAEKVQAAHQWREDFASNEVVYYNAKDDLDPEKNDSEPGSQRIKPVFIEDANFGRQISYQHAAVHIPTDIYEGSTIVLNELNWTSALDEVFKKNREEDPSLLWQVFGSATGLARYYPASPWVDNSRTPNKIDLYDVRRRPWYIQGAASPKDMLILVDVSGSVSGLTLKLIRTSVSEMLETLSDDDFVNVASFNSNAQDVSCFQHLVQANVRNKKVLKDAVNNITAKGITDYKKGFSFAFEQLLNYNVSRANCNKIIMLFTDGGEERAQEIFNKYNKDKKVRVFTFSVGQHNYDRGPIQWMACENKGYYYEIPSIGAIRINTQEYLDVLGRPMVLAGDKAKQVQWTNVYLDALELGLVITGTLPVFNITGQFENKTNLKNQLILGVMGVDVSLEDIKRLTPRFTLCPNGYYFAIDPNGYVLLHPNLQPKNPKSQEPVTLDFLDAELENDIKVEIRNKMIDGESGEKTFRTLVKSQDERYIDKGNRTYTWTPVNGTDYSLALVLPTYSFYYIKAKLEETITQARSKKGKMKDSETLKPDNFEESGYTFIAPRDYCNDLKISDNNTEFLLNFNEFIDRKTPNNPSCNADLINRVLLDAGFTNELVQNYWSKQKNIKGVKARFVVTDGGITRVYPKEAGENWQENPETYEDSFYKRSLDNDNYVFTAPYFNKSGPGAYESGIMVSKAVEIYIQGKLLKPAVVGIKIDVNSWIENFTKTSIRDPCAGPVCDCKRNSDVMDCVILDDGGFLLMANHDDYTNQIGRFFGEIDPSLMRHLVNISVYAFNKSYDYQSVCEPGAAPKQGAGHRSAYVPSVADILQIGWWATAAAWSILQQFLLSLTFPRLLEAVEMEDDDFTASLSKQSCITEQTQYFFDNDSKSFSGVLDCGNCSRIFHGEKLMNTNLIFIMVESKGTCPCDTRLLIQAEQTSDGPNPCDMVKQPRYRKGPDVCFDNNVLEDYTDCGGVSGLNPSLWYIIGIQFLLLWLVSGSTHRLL
T2 sequence (P54289 957-1103 partner limits assumed): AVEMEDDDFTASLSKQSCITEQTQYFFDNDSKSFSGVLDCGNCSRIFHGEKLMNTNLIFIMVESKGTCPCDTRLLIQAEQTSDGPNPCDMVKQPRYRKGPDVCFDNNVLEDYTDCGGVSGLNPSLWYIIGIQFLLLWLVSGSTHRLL

Structure (SMILES) | inhibition at 1 μM [1, 3] [%] | inhibition at 5 min, 1 μM [2] [%] | inhibition at 5 min, 10 μM [2] [%] | inhibition at 10 μM [1, 3] [%] | inhibition at 1 μM [1] [%] | inhibition at 10 μM [1] [%]
COc1ccc2ccccc2c1Cc1c(OCC[N+]2(C)CCCC2)ccc2ccccc12 [Compound A129-2, 1-(2-((1-((2-methoxynaphthalen-1-yl)methyl)naphthalen-2-yl)oxy)ethyl)-1-methylpyrrolidin-1-ium formate] | 25 to 50 | 25 to 50 | 75 to 100 | – | – | –
Oc1ccc2ccccc2c1Cc1c(O)ncc2ccccc12 [Compound A027, 4-((2-hydroxynaphthalen-1-yl)methyl)isoquinolin-3-ol] | < 25 | < 25 | 25 to 50 | < 25 | – | –
COc1cccc(C2CCNCC2)c1Cc1c(OC)cccc1C1CCNCC1 [Compound A194] | – | 25 to 50 | 50 to 75 | – | < 25 | 25 to 50
O=C(O)c1ccc2ccccc2c1Cc1c(C(=O)O)ccc2ccccc12 [Compound A100, 1,1′-methylenebis(2-naphthoic acid)] | < 25 | < 25 | < 25 | < 25 | – | –
CCCCCCOc1ccc2ccccc2c1Cc1c(OCCN)ccc2ccccc12 [Compound A247, 2-((1-((2-(hexyloxy)naphthalen-1-yl)methyl)naphthalen-2-yl)oxy)ethan-1-amine] | < 25 | < 25 | – | – | – | –
CC(c1c(O)ccc2ccccc12)c1c(O)ccc2ccccc12 [Compound A012, 1,1′-(ethane-1,1-diyl) bis (naphthalen-2-ol)] | < 25 | < 25 | 75 to 100 | 25 to 50 | – | –
COc1ccc2ccccc2c1Nc1c([N+](=O)[O-])ccc2ccccc12 [Compound A196, 2-methoxy-N-(2-nitronaphthalen-1-yl)naphthalen-1-amine] | < 25 | < 25 | < 25 | < 25 | – | –
Cc1cc2ccccc2c(Cc2c(O)c(C)cc3ccccc23)c1O [Compound A032, 1,1′-methylenebis(3-methylnaphthalen-2-ol)] | < 25 | < 25 | < 25 | < 25 | – | –
Oc1ccc2ccccc2c1Cc1c(OCCN2CCOCC2)ccc2ccccc12 [Compound A130, 1-((2-(2-morpholinoethoxy)naphthalen-1-yl)methyl)naphthalen-2-ol] | < 25 | 25 to 50 | 75 to 100 | 75 to 100 | – | –
Oc1cccc(-c2cccnc2)c1Cc1c(O)cccc1-c1cccnc1 [Compound A117, 2,2′-methylenebis(3-(pyridin-3-yl)phenol)] | < 25 | < 25 | 25 to 50 | < 25 | – | –
COCCOc1ccc2ccccc2c1Cc1c(OCCN2CCCC2)ccc2ccccc12 [Compound A258, 1-(2-((1-((2-(2-methoxyethoxy)naphthalen-1-yl)methyl)naphthalen-2-yl)oxy)ethyl)pyrrolidine] | 75 to 100 | < 25 | 75 to 100 | 75 to 100 | – | –
Nc1ccc2ccccc2c1Cc1c(O)ccc2ccccc12 [Compound A021, 1-((2-aminonaphthalen-1-yl)methyl)naphthalen-2-ol] | < 25 | < 25 | < 25 | < 25 | – | –
CS(=O)(=O)Nc1cc(Cc2c(NS(C)(=O)=O)ccc3ccccc23)c2ccccc2c1 [Compound A024-2, N-(1-((3-(methylsulfonamido)naphthalen-1-yl)methyl)naphthalen-2-yl)methanesulfonamide] | < 25 | < 25 | 25 to 50 | 50 to 75 | – | –
COc1cccc(-c2cccnc2)c1Cc1c(O)cccc1-c1cccnc1 [Compound A117-I-1, 2-(2-methoxy-6-(pyridin-3-yl)benzyl)-3-(pyridin-3-yl)phenol] | < 25 | < 25 | < 25 | 25 to 50 | – | –
COc1ccc2ccccc2c1Cc1c(COCCN2CCCC2)ccc2ccccc12 [Compound A296, 1-(2-((1-((2-methoxynaphthalen-1-yl)methyl)naphthalen-2-yl)methoxy)ethyl)pyrrolidine] | – | < 25 | 75 to 100 | – | 75 to 100 | –
CCN(CC)CCOc1ccc2cc(C(=O)O)ccc2c1Cc1c(O)ccc2cc(C(=O)O)ccc12 [Compound A125, 5-((6-carboxy-2-(2-(diethylamino)ethoxy)naphthalen-1-yl)methyl)-6-hydroxy-2-naphthoic acid] | < 25 | < 25 | 75 to 100 | – | – | –
Oc1cccc2c1C(c1c(O)ccc3ccccc13)=CC2 [Compound A078, 1-(4-hydroxy-1H-inden-3-yl)naphthalen-2-ol] | < 25 | < 25 | < 25 | < 25 | – | –
Oc1ccc2ccccc2c1Cn1c(O)nc2ccccc21 [Compound A056, 1-((2-hydroxynaphthalen-1-yl)methyl)-1H-benzo[d]imidazol-2-ol] | < 25 | < 25 | 25 to 50 | < 25 | – | –
CCOCOc1ccc2ccccc2c1Cc1c(OCCN)ccc2ccccc12 [Compound A244, 2-((1-((2-(ethoxymethoxy)naphthalen-1-yl)methyl)naphthalen-2-yl)oxy)ethan-1-amine] | 75 to 100 | < 25 | 25 to 50 | 75 to 100 | – | –
Cc1cc2ccccc2c(O)c1Cc1c(C)cc2ccccc2c1O [Compound A035, 2,2′-methylenebis(3-methylnaphthalen-1-ol)] | < 25 | < 25 | 75 to 100 | 50 to 75 | – | –
COc1ccc2ccccc2c1Cc1c(OCCO)ccc2ccccc12 [Compound A139-2, 2-((1-((2-methoxynaphthalen-1-yl)methyl)naphthalen-2-yl)oxy)ethan-1-ol] | 75 to 100 | < 25 | 75 to 100 | 75 to 100 | – | –
O=C1Cc2ccccc2N1Cc1c(O)ccc2ccccc12 [Compound A057, 1-((2-hydroxynaphthalen-1-yl)methyl)indolin-2-one] | < 25 | < 25 | < 25 | < 25 | – | –
NC(=O)c1ccc2ccccc2c1Cc1c(C(N)=O)ccc2ccccc12 [Compound A101, 1,1′-methylenebis(2-naphthamide)] | < 25 | < 25 | < 25 | 50 to 75 | – | –
Oc1c(Cl)cc2ccccc2c1Cc1c(O)c(Cl)cc2ccccc12 [Compound A046, 1,1′-methylenebis(3-chloronaphthalen-2-ol)] | < 25 | < 25 | < 25 | < 25 | – | –
